Assays:
Assay in all cases: relative viability (nuclei count vs DMSO), 5 days (fraction); higher = more cells survive
A549 = system: A549
Method in brief: (§1)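 Relative viability equals treated-well nuclei counts divided by vehicle-well nuclei counts. Counts came from 4× images of lung cancer cell lines grown in 1536-well plates for 5 days after pin-tool dosing on the day after seeding. Dosing used one drug alone or a fixed anchor-drug dose plus five library-drug doses (not always all listed) in √10 steps, and values are medians of duplicate plates.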

Calu-6 = system: Calu-6
Method in brief: as §1

EBC-1 = system: EBC-1
Method in brief: as §1

EKVX = system: EKVX
Method in brief: as §1

HCC-15 = system: HCC-15
Method in brief: as §1

HCC-44 = system: HCC-44
Method in brief: as §1

IA-LM = system: IA-LM
Method in brief: as §1

NCI-H1299 = system: NCI-H1299
Method in brief: as §1

NCI-H1395 = system: NCI-H1395
Method in brief: as §1

NCI-H1703 = system: NCI-H1703
Method in brief: as §1

NCI-H1755 = system: NCI-H1755
Method in brief: as §1

UMC-11 = system: UMC-11
Method in brief: as §1

`Nc1ccn([C@@H]2O[C@H](CO)[C@@H](O)[C@@H]2O)c(=O)n1` [Cytarabine] + CC1(C)CCC(c2ccc(Cl)cc2)=C(CN2CCN(c3ccc(C(=O)NS(=O)(=O)c4ccc(N[C@H](CCN5CCOCC5)CSc5ccccc5)c(S(=O)(=O)C(F)(F)F)c4)cc3)CC2)C1 [Navitoclax] (partner 0.5 µM) showed a relative viability (A549; first compound 0.005 µM) of 0.969, a relative viability (A549; first compound 0.01581 µM) of 0.588 and a relative viability (A549; first compound 0.05 µM) of 0.476. For the same compound, the relative viability (A549; first compound 0.1581 µM) was 0.0384, the relative viability (A549; first compound 0.5 µM) was 0.0234 and the relative viability (Calu-6; first compound 0.005 µM) was 0.831. For the same compound, the relative viability (Calu-6; first compound 0.01581 µM) was 0.796, the relative viability (Calu-6; first compound 0.05 µM) was 0.9 and the relative viability (Calu-6; first compound 0.1581 µM) was 0.338. For the same compound, the relative viability (Calu-6; first compound 0.5 µM) was 0.22, the relative viability (EBC-1; first compound 0.005 µM) was 0.304 and the relative viability (EBC-1; first compound 0.01581 µM) was 0.281. It also gave a relative viability (EBC-1; first compound 0.05 µM) of 0.233, a relative viability (EBC-1; first compound 0.1581 µM) of 0.222 and a relative viability (EBC-1; first compound 0.5 µM) of 0.165. The relative viability (EKVX; first compound 0.005 µM) was 0.936, the relative viability (EKVX; first compound 0.01581 µM) was 0.933 and the relative viability (EKVX; first compound 0.05 µM) was 0.664. The relative viability (EKVX; first compound 0.1581 µM) was 0.298, the relative viability (EKVX; first compound 0.5 µM) was 0.198 and the relative viability (HCC-15; first compound 0.005 µM) was 0.669. The relative viability (HCC-15; first compound 0.01581 µM) was 0.733, the relative viability (HCC-15; first compound 0.05 µM) was 0.609 and the relative viability (HCC-15; first compound 0.1581 µM) was 0.562. For the same compound, the relative viability (HCC-15; first compound 0.5 µM) was 0.43, the relative viability (HCC-44; first compound 0.005 µM) was 0.949 and the relative viability (HCC-44; first compound 0.01581 µM) was 1.01. It also gave a relative viability (HCC-44; first compound 0.05 µM) of 0.534, a relative viability (HCC-44; first compound 0.1581 µM) of 0.563 and a relative viability (HCC-44; first compound 0.5 µM) of 0.26. It also gave a relative viability (IA-LM; first compound 0.005 µM) of 0.917, a relative viability (IA-LM; first compound 0.01581 µM) of 0.603 and a relative viability (IA-LM; first compound 0.05 µM) of 0.64. The relative viability (IA-LM; first compound 0.1581 µM) was 0.279, the relative viability (IA-LM; first compound 0.5 µM) was 0.151 and the relative viability (NCI-H1299; first compound 0.005 µM) was 1.09. It also gave a relative viability (NCI-H1299; first compound 0.01581 µM) of 1.13, a relative viability (NCI-H1299; first compound 0.05 µM) of 1.08 and a relative viability (NCI-H1299; first compound 0.1581 µM) of 1.02. It also gave a relative viability (NCI-H1299; first compound 0.5 µM) of 0.989, a relative viability (NCI-H1395; first compound 0.005 µM) of 1.2 and a relative viability (NCI-H1395; first compound 0.01581 µM) of 0.849. For the same compound, the relative viability (NCI-H1395; first compound 0.05 µM) was 0.65, the relative viability (NCI-H1395; first compound 0.1581 µM) was 0.48 and the relative viability (NCI-H1395; first compound 0.5 µM) was 0.368. It also gave a relative viability (NCI-H1703; first compound 0.005 µM) of 0.717, a relative viability (NCI-H1703; first compound 0.01581 µM) of 0.365 and a relative viability (NCI-H1703; first compound 0.05 µM) of 0.244. It also gave a relative viability (NCI-H1703; first compound 0.1581 µM) of 0.135, a relative viability (NCI-H1703; first compound 0.5 µM) of 0.105 and a relative viability (NCI-H1755; first compound 0.005 µM) of 0.914. The relative viability (NCI-H1755; first compound 0.01581 µM) was 0.821, the relative viability (NCI-H1755; first compound 0.05 µM) was 0.583 and the relative viability (NCI-H1755; first compound 0.1581 µM) was 0.201. The relative viability (NCI-H1755; first compound 0.5 µM) was 0.194, the relative viability (UMC-11; first compound 0.005 µM) was 0.268 and the relative viability (UMC-11; first compound 0.01581 µM) was 0.197. For the same compound, the relative viability (UMC-11; first compound 0.05 µM) was 0.2, the relative viability (UMC-11; first compound 0.1581 µM) was 0.141 and the relative viability (UMC-11; first compound 0.5 µM) was 0.125.

From the supplement of paper PMC10307832
